# Test results taken from ChEMBL document CHEMBL2069281, “2-Phenylamino-6-cyano-1H-benzimidazole-based isoform selective casein kinase 1 gamma (CK1γ) inhibitors” (Bioorg Med Chem Lett, 2012).
# Experiment: Clearance in rat at […], iv
# Assay type: ADME, organism-based
# Set-up: dose 0.58 mg/kg, route intravenous
# Settings: in vivo
structure (smiles),measurement,value
CC(C)(C)c1ccc(Nc2nc3ccc(C#N)cc3[nH]2)cc1,clearance,108 mL/min/kg
